Measurements published in patent publication US20080176225A1, “MEMBRANE BOUND REPORTER GENE SYSTEM” (priority 2007, published 2008).

What was measured:
mβG-eB7 [1] = biological target: T1, mβG-eB7 (Mus musculus, UniProt P12265, G265D/I320V); experiment: ^124I-trap-glu conversion by CT26/mβG-eB7 or CT26 cells, bound radioactivity in gamma-counter; assay type: cell-based; conditions: graded concentrations, room temperature, about 40 mins
T1 construct: expressed in transfected cells
T1 sequence (P12265 with tags, fused parts or gaps G265D/I320V): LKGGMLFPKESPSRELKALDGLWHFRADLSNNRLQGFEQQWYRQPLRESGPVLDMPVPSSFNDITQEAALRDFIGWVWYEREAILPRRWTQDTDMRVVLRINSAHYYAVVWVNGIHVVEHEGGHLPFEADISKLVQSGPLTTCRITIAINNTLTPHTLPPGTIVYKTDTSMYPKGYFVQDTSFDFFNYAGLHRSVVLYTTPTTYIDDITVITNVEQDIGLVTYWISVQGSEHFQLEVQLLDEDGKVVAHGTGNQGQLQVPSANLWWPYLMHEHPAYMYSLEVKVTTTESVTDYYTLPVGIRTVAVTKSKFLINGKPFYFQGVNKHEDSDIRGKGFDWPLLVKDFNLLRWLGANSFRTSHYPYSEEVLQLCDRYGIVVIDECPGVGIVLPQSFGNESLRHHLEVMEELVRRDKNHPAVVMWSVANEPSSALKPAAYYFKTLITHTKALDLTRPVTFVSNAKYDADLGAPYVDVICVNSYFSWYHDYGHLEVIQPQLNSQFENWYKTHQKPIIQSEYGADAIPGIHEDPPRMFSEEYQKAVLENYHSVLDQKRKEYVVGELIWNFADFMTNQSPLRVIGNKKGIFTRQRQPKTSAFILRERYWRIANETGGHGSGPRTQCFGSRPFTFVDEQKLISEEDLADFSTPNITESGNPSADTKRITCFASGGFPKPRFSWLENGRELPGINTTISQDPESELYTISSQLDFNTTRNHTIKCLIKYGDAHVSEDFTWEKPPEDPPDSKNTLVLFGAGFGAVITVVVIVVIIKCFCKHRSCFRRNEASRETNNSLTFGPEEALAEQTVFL
Procedure: Graded concentrations of the ^124I-trap-glu probe/substrate were incubated with CT26/mβG-eB7 (▪) or CT26 cells (□) in phosphate-buffer saline at room temperature for about 40 mins. The plates containing the transfected cells were washed and bound radioactivity was measured in a gamma-counter.

mβG-eB7 [2] = biological target: T1, mβG-eB7; experiment: Biodistribution by optical imaging of whole-body frozen sections after i.v. FDGlcU or fluorescein; assay type: in vivo; conditions: 30 minutes after i.v. injection of 500 μg
Procedure: In vivo biodistribution of fluorescein was measured around 30 minutes after i.v. injection of the substrate, FDGlcU, (left panel) or fluorescein (right panel). The biodistribution of activated FDGlcU was examined by killing tumor-bearing mice 30 minutes after they received an injection of FDGlcU or fluorescein and then performing optical imaging of whole-body frozen sections. The intensity of the fluorescence of whole-body sections was measured with the IVIS® Imaging System 50 (Xenogen, Alameda, Calif.).
For example, mice (n=3) were i.v. injected with 500 μg FDGlcU or fluorescein 30 min before the mice were dipped into isopentane at liquid nitrogen temperatures and embedded on a cryostat holder (7×5 cm) in 4% carboxylmethylcellulose. The fluorescence signals of 30 μm whole-body sections were measured on a IVIS® Imaging System 50 (Xenogen, Alameda, Calif.) and the regions of interest were analyzed with Living Image® software (Xenogen).
FIG. 9 is a graph showing a comparison of the results of the example of FIG. 8 in different organ regions of interest according to one embodiment of the invention. After i.v. injection of FDGlcU or fluorescein, mice were analyzed with Living Image® software. […] The fluorescent intensity in CT26/mβG-eB7 tumors was about 240 times greater than in the CT26 tumors (FIG. 9). Fluorescent signals were also observed in the intestinal tract.

mβG-eB7 [3] = biological target: T1, mβG-eB7; experiment: FDGlcU staining of HCC36 cells infected with Ad5/mβG-eB7, flow cytometer; assay type: cell-based
Excerpt: HCC36 cells (open curve) and HCC36 cells infected with Ad5/mβG-eB7 (solid curve) were stained for the presence of the […] epitope in mβG-eB7 (left panel) or directly stained with FDGlcU (right panel) and then analyzed on a flow cytometer.
As shown by staining of membrane β-glucuronidase with anti-myc antibody in the left panel of FIG. 10, HCC36 cells were successfully infected with Ad5/mβG-eB7.

mβG-eB7 [4] = biological target: T1, mβG-eB7; experiment: In vivo whole-body optical imaging of FDGlcU activation in mice bearing CT26 and CT26/mβG-eB7 tumors; conditions: Balb/c mice, 500 μg i.v.
Procedure: To investigate whether expression sites of membrane bound β-glucuronidase reporter system could be non-invasively detected (in vivo imaging), Balb/c mice bearing established CT26 and CT26/mβG-eB7 colon tumors in their left and right chest regions, respectively, were intravenously injected with about 500 μg of non-fluorescent FDGlcU. Whole-body images of the mice were acquired by performing 3 minute scans.
As an example, Balb/c mice (n=3) bearing established CT26 and CT26/mβG tumors (200-300 mm^3) in their left and right chest regions, respectively, were i.v. injected with 500 μg FDGlcU. Whole-body images of pentobarbital-anesthetized mice were obtained by performing 3 minutes scans over 90 minutes on a Kodak IS2000MM optical imaging system. The fluorescence intensities were analyzed with KODAK 1D Image Analysis Software.
The distribution of activated FDGlcU in CT26 (open circle) and CT26/mβG-eB7 (black dot) tumors (n=4) was determined by measuring fluorescence intensities in 3 minute scans performed over 90 minutes.

hβG-eB7 = biological target: T2, hβG-eB7 (UniProt P08236+Q00609, L649P); experiment: In vivo imaging of FDGlcU in nude mice bearing EJ and EJ/hβG-eB7 tumors; set-up: species or system human; conditions: 500 μg i.v.
T2 construct: expressed in transfected cells; host or cells: EJ human bladder carcinoma cells, retroviral transduction with pLNCX-hβG-eB7; tumours in nude mice
T2 sequence (P08236+Q00609 with tags, fused parts or gaps P08236:L649P): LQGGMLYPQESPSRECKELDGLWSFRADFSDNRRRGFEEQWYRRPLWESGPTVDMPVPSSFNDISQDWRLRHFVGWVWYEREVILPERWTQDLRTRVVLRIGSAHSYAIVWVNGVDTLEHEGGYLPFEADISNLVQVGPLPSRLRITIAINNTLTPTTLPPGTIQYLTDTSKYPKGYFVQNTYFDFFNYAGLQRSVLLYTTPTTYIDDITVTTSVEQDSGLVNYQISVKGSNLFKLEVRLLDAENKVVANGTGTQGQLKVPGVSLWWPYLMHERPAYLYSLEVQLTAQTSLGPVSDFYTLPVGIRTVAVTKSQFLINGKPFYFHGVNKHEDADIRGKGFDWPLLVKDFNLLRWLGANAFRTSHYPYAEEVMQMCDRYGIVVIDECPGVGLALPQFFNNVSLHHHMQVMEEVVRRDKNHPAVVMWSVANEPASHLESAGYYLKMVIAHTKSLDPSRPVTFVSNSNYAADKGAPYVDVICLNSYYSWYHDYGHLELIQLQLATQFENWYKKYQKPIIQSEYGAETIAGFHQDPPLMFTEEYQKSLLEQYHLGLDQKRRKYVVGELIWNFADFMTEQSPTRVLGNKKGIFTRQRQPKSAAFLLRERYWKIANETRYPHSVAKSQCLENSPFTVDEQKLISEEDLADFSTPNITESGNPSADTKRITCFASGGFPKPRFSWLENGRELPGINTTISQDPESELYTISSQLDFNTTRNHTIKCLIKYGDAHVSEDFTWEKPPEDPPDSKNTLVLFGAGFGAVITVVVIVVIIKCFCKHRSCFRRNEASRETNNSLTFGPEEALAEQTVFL
Procedure: Retroviral vector pLNCX-hβG-eB7 was constructed and infected to EJ human bladder carcinoma cells (EJ/hβG-eB7) to express functionally active human β-glucuronidase on the membrane. hβG-eB7 was imaged in nude mice (n=3) bearing established EJ and EJ/hβG-eB7 tumors (200-300 mm^3) in their left and right chest regions, respectively, by i.v. injecting 500 μg FDGlcU and performing imaging and histological analysis of fluorescent intensity and βG activity as described above.
FDGlcU was i.v. injected into mice bearing EJ (left) and EJ/hβG-eB7 (right) tumors and whole-body images were acquired at the indicated times (3 mins, 30 mins, 60 mins). […] Live EJ cells (open curve) and EJ/hβG-eB7 cells (solid curve) were immunofluorescence stained for the myc epitope (left panel) or incubated with FDGlcU (right panel), respectively, and analyzed on a flow cytometer.

mβG-eB7 [5] = biological target: T1, mβG-eB7; experiment: FDGlcU hydrolysis on live CT26 and CT26/mβG-eB7 cells, confocal microscopy; assay type: cell-based; conditions: 40 μM FDGlcU, pH 6.5, 37° C., 40 minutes
Procedure: For example, functional expression of membrane bound β-glucuronidase on a host cell can be measured by incubating the host cells (with and without the recombinant reporter gene systems, such as CT26 or CT26/mβG-eB7 cells) with 40 μM FDGlcU (Invitrogen, Calsbad, Calif.) in phosphate-buffered saline containing 0.1% BSA, pH 6.5 at 37° C. for 40 minutes and then staining the cells with anti-myc antibody (5 μg/ml, clone Myc 1-9EIO.2, American Type Culture Collection, Manassas, Va.) at about 4° C. for about 1 hour. The cells can be washed with cold phosphate-buffered saline and incubated with rhodamine-conjugated rabbit anti-mouse IgG antibody (5 μg/ml) at about 4° C. for about 1 hour. The cells are then washed with cold phosphate-buffered saline, mounted with fluorescence mounting medium (anti fade; DakoCytomation, Carpinteria, Calif.), and viewed under a digital fluorescence confocal microscope.

mβG-eB7 [6] = biological target: T1, mβG-eB7; experiment: In vivo imaging of FDGlcU in nude mice with HCC36 tumors injected with Ad5/mβG-eB7; conditions: 10^9 pfu intratumoral, FDGlcU i.v. two days later
Procedure: To image Ad5/mβG-eB7, nude mice (n=3) bearing established HCC36 tumors (200-300 mm^3) in their left and right chest's regions were injected in the right HCC36 tumor with 10^9 pfu of Ad5/mβG-eB7 in 50 μl of phosphate-buffered saline (PBS). Two days later, the mice were i.v. injected with 500 μg of FDGlcU. Whole-body images were obtained in 3 min scans over 2 hour.
After the tumors grew, 10^9 pfu of Ad5/mβG-eB7 was directly injected into the HCC36 tumor on the right side of the mouse. Two days later, the mouse was i.v. injected with FDGlcU and whole-body optical imaging was performed.
Tumor cells were collected 30 minutes after FDGlcU injection were stained with X-GlcA and nuclear fast red and then viewed under phase contrast and fluorescence microscopes.

mβG-eB7 [7] = biological target: T1, mβG-eB7; experiment: ^124I-ph-trap-glu conversion by CT26/mβG-eB7 or CT26 cells, cell radioactivity in gamma-counter; assay type: cell-based; conditions: graded concentrations, room temperature, about 40 mins
Procedure: Graded concentrations of the ^124I-trap-glu probe was added to 96-well microtiter plates coated with CT26/mβG-eB7 (▪) or CT26 cells (□) in phosphate-buffered saline at room temperature for about 40 mins. The plates were then washed to remove non-precipitated probes and the cells were collected by treatment with trypsin. The radioactivity of cells was then measured in a gamma-counter.

[8] = biological target: Recombinant E. coli β-glucuronidase (Escherichia coli, UniProt P05804); experiment: Trapping of FITC-trap-glu on coated β-glucuronidase detected by anti-FITC antibody ELISA; assay type: biochemical; conditions: β-glucuronidase and BSA about 2 μg/well, serial dilutions, about 60 mins
Chain of Recombinant E. coli β-glucuronidase (P05804 whole entry): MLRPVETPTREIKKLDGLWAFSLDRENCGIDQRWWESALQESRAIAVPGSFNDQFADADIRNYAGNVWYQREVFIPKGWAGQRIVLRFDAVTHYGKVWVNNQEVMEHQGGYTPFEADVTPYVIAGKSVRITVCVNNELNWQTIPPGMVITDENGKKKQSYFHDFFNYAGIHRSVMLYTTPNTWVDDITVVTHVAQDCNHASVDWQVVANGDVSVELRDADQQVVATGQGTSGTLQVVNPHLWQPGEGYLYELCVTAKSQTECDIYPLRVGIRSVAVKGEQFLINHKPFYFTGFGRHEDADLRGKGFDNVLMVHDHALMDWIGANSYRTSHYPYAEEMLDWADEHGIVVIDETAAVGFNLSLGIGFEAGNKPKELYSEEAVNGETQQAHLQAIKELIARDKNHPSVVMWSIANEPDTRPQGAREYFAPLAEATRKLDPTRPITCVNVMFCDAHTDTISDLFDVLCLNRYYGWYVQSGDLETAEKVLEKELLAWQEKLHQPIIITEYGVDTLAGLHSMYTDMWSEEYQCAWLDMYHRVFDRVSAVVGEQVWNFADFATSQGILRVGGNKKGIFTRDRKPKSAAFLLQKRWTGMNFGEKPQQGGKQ
Procedure: Recombinant E. coli β-glucuronidase (about 2 μg/well) and bovine serum albumin (about 2 μg/well) were coated in 96 well microtiter plates and blocked with about 2% of skin milk. Serial dilutions of the FITC-trap-glu probe in phosphate-buffered saline were added to the wells of the microtiter plates at room temperature for about 60 mins. The plates were washed 3 times with phosphate-buffered saline. The plates were stained with about 1 μg/mL of an anti-FITC antibody followed by about 1 μg/mL of horse-radish peroxidase-conjugated anti-mouse IgG. The plates were washed and bound peroxidase activity was measured by adding about 100 μL/well of ABTS solution (about 0.4 mg/mL of 2,2′ azino-di(3-ethylbenzthiazoline-6-sulfonic acid), about 0.003% of H2O2, about 100 mM of phosphate-citrate, pH 4.0) for about 30 min at room temperature.

Molecule: ^124I-difluoromethylphenol glucuronide [^124I-trap-glu]
- conversion of probe to ^124I-trap product in CT26/mβG-eB7 vs CT26 cells (mβG-eB7 [1]): specifically converts

Molecule: O=C1OC2(c3ccc(O)cc3Oc3cc(O)ccc32)c2ccccc21 [fluorescein]
- in vivo biodistribution (mβG-eB7 [2]; tumor-bearing mice): largely accumulated in the intestinal tract and kidneys

Molecule: O=C1OC2(c3ccc(O[C@@H]4O[C@H](C(=O)O)[C@@H](O)[C@H](O)[C@H]4O)cc3Oc3cc(O[C@@H]4O[C@H](C(=O)O)[C@@H](O)[C@H](O)[C@H]4O)ccc32)c2ccccc21 [FDGlcU, fluorescein di-β-D-glucuronide]
- activation of FDGlcU at Ad5/mβG-eB7 infected HCC36 cells (mβG-eB7 [3]): activated to fluorescent product at the infected cells
- time of highest fluorescence after FDGlcU injection (mβG-eB7 [4]; 3 minute scans over 90 minutes): 30 min
- conversion of FDGlcU to fluorescein in CT26/mβG tumors vs control CT26 tumors (mβG-eB7 [4]; whole-body images at 3, 30, 60 mins): selectively converted to fluorescein
- conversion to fluorescent reporter in EJ/hβG-eB7 vs control EJ tumors (hβG-eB7): preferentially converted to a fluorescent reporter in EJ/hβG-eB7 tumors but not in control tumors
- fluorescent intensity in CT26/mβG-eB7 tumors relative to CT26 tumors (mβG-eB7 [2]; whole-body sections): about 240 times
- conversion of FDGlcU to fluorescein on cells (mβG-eB7 [5]): only CT26/mβG-e-B7 cells
- fluorescence of Ad5/mβG-eB7 injected HCC36 tumor vs non-infected HCC36 tumors (mβG-eB7 [6]): obvious fluorescence

Molecule: ^124I-phenolphthalin glucuronide [^124I-ph-trap-glu]
- conversion of probe to ^124I-trap reporter product in CT26/mβG-eB7 vs CT26 cells (mβG-eB7 [7]): specifically converts

Molecule: N-fluorescein-isothiocyanato (3-difluoromethylphenyl)-β-D-glucopyronuronate [FITC-trap-glu]
- trapping by β-glucuronidase detected by anti-FITC antibody [8]: specific trapping
